# Laboratory results as given in ChEMBL document CHEMBL5149976, “β-Carbolines as potential anticancer agents” (Eur J Med Chem, 2021).
# pEC50, pIC50: −log10 of the molar value.
# Experiments:
# [1] = test system: L1210; assay: Cytotoxicity against mouse L1210 cells assessed as cell growth inhibition; type: functional, cell-based
# [2] = test system: L5178Y; assay: Cytotoxicity against mouse L5178Y cells assessed as cell growth inhibition; type: functional, cell-based
# [3] = test system: NCI-H1299; assay: Cytotoxicity against human NCI-H1299 cells assessed as cell growth inhibition; type: functional, cell-based
# [4] = test system: A-375; assay: Cytotoxicity against human A-375 cells assessed as cell growth inhibition; type: functional, cell-based
# [5] = In vivo antitumor activity against mouse Lewis lung carcinoma cells xenografted in mouse model assessed as inhibition of cell growth relative to control; type: functional
# [6] = molecular target: DNA topoisomerase 1 (Homo sapiens) (UniProt P11387); assay: Inhibition of topoisomerase 1 (unknown origin) assessed as relaxation of pBR322 plasmid DNA and incubated for 10 mins
# Chain of DNA topoisomerase 1 (Homo sapiens) (P11387 whole entry): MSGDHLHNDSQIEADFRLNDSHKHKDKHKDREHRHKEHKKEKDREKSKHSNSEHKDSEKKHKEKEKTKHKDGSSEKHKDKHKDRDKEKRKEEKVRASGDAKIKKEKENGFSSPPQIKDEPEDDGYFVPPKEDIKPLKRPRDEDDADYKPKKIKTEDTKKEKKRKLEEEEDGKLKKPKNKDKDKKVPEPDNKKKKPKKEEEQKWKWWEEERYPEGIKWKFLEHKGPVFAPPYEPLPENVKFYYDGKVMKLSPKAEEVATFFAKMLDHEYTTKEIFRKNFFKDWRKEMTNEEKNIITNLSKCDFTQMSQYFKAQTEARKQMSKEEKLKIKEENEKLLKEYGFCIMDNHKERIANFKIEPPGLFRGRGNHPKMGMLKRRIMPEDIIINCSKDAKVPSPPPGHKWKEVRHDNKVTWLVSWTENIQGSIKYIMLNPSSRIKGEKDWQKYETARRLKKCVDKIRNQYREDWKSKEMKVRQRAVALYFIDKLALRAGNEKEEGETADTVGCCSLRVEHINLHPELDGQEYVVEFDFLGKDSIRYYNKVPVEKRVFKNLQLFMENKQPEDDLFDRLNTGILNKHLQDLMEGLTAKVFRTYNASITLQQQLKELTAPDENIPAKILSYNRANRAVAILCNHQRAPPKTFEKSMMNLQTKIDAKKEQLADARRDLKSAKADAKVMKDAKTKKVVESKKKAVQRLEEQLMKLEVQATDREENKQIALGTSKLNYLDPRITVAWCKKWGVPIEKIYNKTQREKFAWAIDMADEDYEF
# [7] = test system: CCRF S-180; assay: Antitumor activity against mouse CCRF S-180 cells allografted in ICR mouse assessed as tumor growth inhibition at 0.1 micromol/kg, iv administered for 7 days relative to control; type: functional; details: dose 0.1 µmol/kg, time 7 day
# [8] = test system: A549; assay: Cytotoxicity against human A549 cells assessed as cell growth inhibition by MTT assay; type: functional, cell-based
# [9] = test system: B16; assay: Cytotoxicity against mouse B16 cells assessed as cell growth inhibition by MTT assay; type: functional, cell-based
# [10] = test system: MCF7; assay: Cytotoxicity against human MCF7 cells assessed as cell growth inhibition; type: functional, cell-based
# [11] = test system: HeLa; assay: Cytotoxicity against human HeLa cells assessed as cell growth inhibition; type: functional, cell-based
# [12] = test system: U-251; assay: Cytotoxicity against human U-251 cells assessed as cell growth inhibition and measured after 48 hrs; type: functional, cell-based; details: U-251, 48 h
# [13] = test system: PC-3; assay: Cytotoxicity against human PC-3 cells assessed as cell growth inhibition and measured after 48 hrs; type: functional, cell-based; details: PC-3, 48 h
# [14] = test system: OVCAR-3; assay: Cytotoxicity against human OVCAR-3 cells assessed as cell growth inhibition and measured after 48 hrs; type: functional, cell-based; details: OVCAR-3, 48 h
# [15] = test system: Panel NCI-60 (60 carcinoma cell lines); assay: Cytotoxicity against human Panel NCI-60 (60 carcinoma cell lines) assessed as cell growth inhibition; type: functional, cell-based
# [16] = test system: RPMI-8226; assay: Cytotoxicity against human RPMI-8226 cells assessed as cell growth inhibition; type: functional, cell-based
# [17] = test system: CCRF-CEM; assay: Cytotoxicity against human CCRF-CEM cells assessed as cell growth inhibition; type: functional, cell-based
# [18] = test system: KB; assay: Cytotoxicity against human KB cells; type: functional, cell-based
# [19] = test system: DU-145; assay: Cytotoxicity against human DU-145 cells assessed as cell growth inhibition by MTT assay; type: functional, cell-based; details: pooled result: one value given for 5 cell lines, strains, targets or settings
# [20] = Cytotoxicity against human KB-16 cells assessed as cell growth inhibition and measured after 5 hrs by MTT assay; type: functional, cell-based; details: KB16, 5 h
# [21] = test system: P388; assay: Cytotoxicity against mouse P388 cells assessed as cell growth inhibition and measured after 5 hrs by MTT assay; type: functional, cell-based; details: P388, 5 h
# [22] = test system: A549; assay: Cytotoxicity against human A549 cells assessed as cell growth inhibition and measured after 5 hrs by MTT assay; type: functional, cell-based; details: A549, 5 h
# [23] = test system: HT-29; assay: Cytotoxicity against human HT-29 cells assessed as cell growth inhibition and measured after 5 hrs by MTT assay; type: functional, cell-based; details: HT-29, 5 h
# [24] = test system: L1210; assay: Cytotoxicity against mouse L1210 cells; type: functional; details: read-out: ED50 (the source's name)
# [25] = test system: MOLT-4F; assay: Cytotoxicity against human MOLT-4F cells; type: functional; details: read-out: ED50 (the source's name)
# [26] = test system: MT4; assay: Cytotoxicity against human MT4 cells; type: functional; details: read-out: ED50 (the source's name)
# [27] = test system: P388; assay: Cytotoxicity against mouse P388 cells; type: functional, cell-based; details: read-out: ED50 (the source's name)
# [28] = test system: HepG2; assay: Cytotoxicity against human HepG2 cells assessed as cell growth inhibition and measured after 24 hrs by MTT assay; type: functional, cell-based; details: HepG2, 24 h
# [29] = test system: HeLa; assay: Cytotoxicity against human HeLa cells assessed as cell growth inhibition and measured after 24 hrs by MTT assay; type: functional, cell-based
# [30] = test system: Calf thymus DNA; assay: Stabilization of calf thymus DNA assessed as change in melting temperature; type: nucleic-acid assay; details: Bos taurus
# [31] = test system: Calf thymus DNA; assay: Binding affinity to calf thymus DNA assessed as binding constant by spectrophotometric analysis; type: nucleic-acid assay; details: Bos taurus
# [32] = test system: HGC-27; assay: Cytotoxicity against human HGC-27 cells assessed as inhibition of cell growth measured after 48 hrs by MTT assay; type: functional, cell-based; details: HGC-27, 48 h
# [33] = test system: HT-29; assay: Cytotoxicity against human HT-29 cells assessed as inhibition of cell growth measured after 48 hrs by MTT assay; type: functional, cell-based; details: HT-29, 48 h
# [34] = test system: HOP-92; assay: Anticancer activity against human HOP-92 cells; type: functional
# [35] = test system: HT-29; assay: Anticancer activity against human HT-29 cells; type: functional
# [36] = test system: M14; assay: Anticancer activity against human M14 cells; type: functional
# [37] = test system: UACC-62; assay: Anticancer activity against human UACC-62 cells; type: functional
# [38] = test system: OVCAR-3; assay: Anticancer activity against human OVCAR-3 cells; type: functional
# [39] = test system: MDA-MB-231; assay: Anticancer activity against human MDA-MB-231 cells; type: functional
# [40] = Anti-ferroptotic activity against human BJeLR cells assessed as cell growth inhibition; type: functional, cell-based
# [41] = test system: Calu-1; assay: Anti-ferroptotic activity against human Calu-1 cells assessed as cell growth inhibition; type: functional, cell-based
# [42] = Cytotoxicity against mouse C19 cells assessed as cell growth inhibition by MTT assay; type: functional, cell-based
# [43] = test system: LoVo; assay: Cytotoxicity against human LoVo cells assessed as cell growth inhibition; type: functional, cell-based
smiles,measurement,setting,value
Cc1ccc(C[C@H](N)[C@@H]2NCCc3c2[nH]c2ccc(Br)cc32)cc1,pIC50,"[1]; Mus musculus, L1210",5.51
same,pIC50,[1]; l1210,5.47
same,pIC50,[2],5.51
Cn1c2cnccc2c2c(Br)c(O)ccc21,pIC50,"[1]; Mus musculus, L1210",6.38
same,pIC50,[1]; l1210,6.44
same,pIC50,[2],6.38
c1ccc2c(c1)[nH]c1c(CNCCOCCNCc3nccc4c3[nH]c3ccccc34)nccc12,pIC50,[3],5.80
c1ccc2c(c1)[nH]c1c(CNCCOCCOCCNCc3nccc4c3[nH]c3ccccc34)nccc12,pIC50,[4],5.70
CCCCn1c2ccccc2c2ccnc(C(=O)OCCCCCCOC(=O)c3nccc4c5ccccc5n(CCCC)c34)c21,inhibition (INH),[5],64.2%
c1ccc2c(c1)[nH]c1cnccc12,ED50,[6],34.4 µg/mL
COc1cc(-c2nc(C(=O)N[C@@H](Cc3c[nH]c4ccccc34)C(=O)N[C@@H](Cc3c[nH]c4ccccc34)C(=O)N[C@@H](CO)C(=O)OCc3ccccc3)cc3c2[nH]c2ccccc23)ccc1O,TGI,[7],62.9%
O=C(/C=C/C1Cc2c([nH]c3ccccc23)C(c2ccc(F)cc2)N1)c1ccc(F)cc1 (stereo not given),pIC50,[8],5.25
same,pIC50,[9],5.13
COc1ccc(-c2c(-c3ccccc3)ncc3[nH]c4ccccc4c23)cc1,pIC50,[10],4.68
same,pIC50,[11],4.47
COc1ccc(-c2nc(C3=N/C(=C\c4ccccc4)C(=O)O3)cc3c2[nH]c2ccccc23)cc1,pIC50,[12],6.32
same,pIC50,[13],5.82
same,pIC50,[14],5.97
COc1ccc(-c2nc(-c3nc4ccc(OC)cc4[nH]3)cc3c2[nH]c2ccccc23)cc1,pIC50,[15],5.72
same,pIC50,[16],6.44
same,pIC50,[17],6.06
Cc1nccc2c1[nH]c1ccccc12,ED50,[6],23.8 µg/mL
Oc1ccc2[nH]c3c(C4=C[C@@]5(O)CC/C=C\CCCCN6CC[C@@H]4[C@]4(C[C@@H]7/C=C\CCCCN7[C@H]45)C6)nccc3c2c1 [MANZAMINE Y],pIC50,"[1]; Mus musculus, L1210",5.82
same,pIC50,[18],5.60
Fc1ccc(-c2nc(-c3nc4ccc(Cl)cc4[nH]3)cc3c2[nH]c2ccccc23)cc1,pIC50,[15],5.72
O=C(/C=C/c1cc2c([nH]c3ccccc32)c(-c2ccc(F)cc2)n1)c1ccco1,pIC50,[8],5.73
same,pIC50,[19],5.73
CCN(CC)c1ccc(C2NCCc3c2[nH]c2ccccc32)cc1 (stereo not given),IC50,[20],0.07 µg/mL
same,IC50,[21],0.07 µg/mL
same,IC50,[22],0.07 µg/mL
same,IC50,[23],0.07 µg/mL
COc1ccc2nc(-c3cc4c([nH]c5ccccc54)c(-c4ccc(F)c(F)c4)n3)[nH]c2c1,pIC50,[15],5.72
CC[C@H](C)[C@H](NC(=O)[C@H](Cc1c[nH]c2ccccc12)NC(=O)[C@H](Cc1c[nH]c2ccccc12)NC(=O)c1cc2c([nH]c3ccccc32)c(-c2ccc(O)c(OC)c2)n1)C(=O)OCc1ccccc1,TGI,[7],63.4%
CCn1c2ccccc2c2cc(C3NCCc4c3[nH]c3ccccc43)ccc21 (stereo not given),IC50,[20],< 0.001 µg/mL
same,IC50,[21],< 0.001 µg/mL
same,IC50,[22],< 0.001 µg/mL
same,IC50,[23],< 0.001 µg/mL
COc1ccc2c(c1)C1CCN3OCSCC(N)C3C1N2 (stereo not given),pEC50,[24],> 8.30
same,pEC50,[25],> 8.30
same,pEC50,[26],> 8.30
same,pEC50,[27],> 8.30
CNC(CSC)c1nccc2c1[nH]c1ccc(O)c(Br)c12 (stereo not given),pIC50,"[1]; Mus musculus, L1210",5.74
same,pIC50,[1]; l1210,5.62
same,pIC50,[2],5.74
COC(=O)c1cc2c([nH]c3ccccc32)c(-c2ccc(OCc3cn(-c4cccc(Cl)c4Cl)nn3)cc2)n1,pIC50,[28],4.49
same,pIC50,[29],4.34
NC1CSCON2CCC3c4ccccc4NC3C12 (stereo not given),pEC50,[24],8.30
same,pEC50,[25],8.30
same,pEC50,[26],8.30
same,pEC50,[27],8.30
CC(=O)N1N=C(c2ccco2)CC1c1cc2c([nH]c3ccccc32)c(-c2ccc(F)cc2)n1 (stereo not given),pIC50,[8],5.71
same,pIC50,[19],5.71
COc1ccccc1-c1c(-c2ccccc2)ncc2[nH]c3ccccc3c12,pIC50,[10],4.45
same,pIC50,[11],4.45
NCCCCNC(=O)c1cc2c(cn1)[nH]c1ccccc12,ΔTm,[30],5.7 °C
same,K,[31],4.5 10^4/M
COc1cc(-c2nc(Cn3cc(CN4C(=O)c5ccc(C)cc5C4=O)nn3)cc3c2[nH]c2ccccc23)cc(OC)c1OC,pIC50,[32],> 5.00
same,pIC50,[33],5.44
"O[C@]12C=C(C3=NCCc4c3[nH]c3ccccc43)[C@@H]3CCN(CCCC/C=C\CC1)C[C@@]31C[C@@H]3/C=C\CCCCN3[C@H]12 [3,4-DIHYDROMANZAMINE A]",pIC50,"[1]; Mus musculus, L1210",5.32
same,pIC50,[18],6.21
CCN(CC)CCCNc1nccc2c1[nH]c1ccccc12,GI50,[34],380 nM
same,GI50,[35],2700 nM
same,GI50,[36],2000 nM
same,GI50,[37],2300 nM
same,GI50,[38],1600 nM
same,GI50,[39],5200 nM
COC(=O)c1ccc([C@H]2c3[nH]c4ccccc4c3C[C@H](C(=O)OC)N2C(=O)CCl)cc1,pIC50,[40],5.70
same,pIC50,[41],7.70
COc1cccc2c1C(=O)c1c(O)c3c(c(O)c1C2=O)C[C@@](O)(C(=O)CO)C[C@@H]3O[C@H]1C[C@H](N)[C@H](O)[C@H](C)O1.Cl [DOXORUBICIN HYDROCHLORIDE],TGI,[7],61.1%
COC(=O)[C@@H]1Cc2c([nH]c3ccccc23)[C@@H](c2ccccc2)N1,pIC50,[15],6.44
O=Cc1cc2c([nH]c3ccccc32)c(-c2ccccc2)n1,pIC50,[15],6.44
c1ccc2c(-c3nccc4c3[nH]c3ccccc34)c[nH]c2c1,pIC50,[42],4.81
COc1ccc(-c2nc(-c3nc4ccc(F)cc4[nH]3)cc3c2[nH]c2ccccc23)cc1,pIC50,[15],5.72
c1ccc(-c2nc(-c3nc4ccccc4[nH]3)cc3c2[nH]c2ccccc23)cc1,pIC50,[15],6.44
CCCCc1nc(C(=O)O)cc2c1[nH]c1ccccc12,pIC50,[43],4.96
